Experiment [1] concerns the target T1, Sts-2PGM (Mus musculus, UniProt Q3V3E1).
T1 sequence (Q3V3E1 354-624): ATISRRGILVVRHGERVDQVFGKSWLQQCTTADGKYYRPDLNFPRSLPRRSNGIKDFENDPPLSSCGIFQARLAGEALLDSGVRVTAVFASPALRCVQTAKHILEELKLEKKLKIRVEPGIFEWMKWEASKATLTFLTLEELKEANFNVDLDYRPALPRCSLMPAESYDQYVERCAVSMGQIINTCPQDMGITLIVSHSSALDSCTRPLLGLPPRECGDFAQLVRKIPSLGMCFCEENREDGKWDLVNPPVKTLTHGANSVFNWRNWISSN
Kind of experiment: biochemical.

In a further experiment the target is T2, Sts-2PGM(A446S/S552A) (Mus musculus, UniProt Q3V3E1, A446S/S552A).
T2 sequence (Q3V3E1 354-624 A446S/S552A): T1 sequence (Q3V3E1 354-624) with A93S, S199A
Kind of experiment: pNPP hydrolysis by Sts-2PGM. The class given is biochemical. As to conditions: substrate pNPP, pH 7.5, relative to Sts-2PGM.

The target of the next experiment is Sts-1PGM (Mus musculus, UniProt Q8BGG7). Kind of experiment: pNPP hydrolysis by Sts-1PGM. The class given is biochemical. As to conditions: substrate pNPP.
For experiment [2], the target named is T1, Sts-2PGM. Kind of experiment: pNPP hydrolysis by wild-type Sts-2PGM. The class given is biochemical. As to conditions: substrate pNPP, Sts-2PGM wild-type.
The target of the next experiment is T3, Sts-2PGM(E481V) (Mus musculus, UniProt Q3V3E1, E481V).
T3 sequence (Q3V3E1 354-624 E481V): T1 sequence (Q3V3E1 354-624) with E128V
Kind of experiment: pNPP hydrolysis by Sts-2PGM. As to conditions: substrate pNPP. The class given is biochemical.

The target of a further experiment is T4, Sts-2PGM(S552A/S582Y) (Mus musculus, UniProt Q3V3E1, S552A/S582Y).
T4 sequence (Q3V3E1 354-624 S552A/S582Y): T1 sequence (Q3V3E1 354-624) with S199A, S229Y
Kind of experiment: pNPP hydrolysis by Sts-2PGM. The class given is biochemical. As to conditions: substrate pNPP.

Here are results for four molecules from article PMC2880635 (Biochemistry, 2009).

Broadly, the IC50 is the concentration needed to halve the response being measured. Read a high IC50 as weaker potency. By Ki is commonly meant a measure of affinity in units of concentration, obtained from inhibition or displacement. Low values mean tighter binding, high ones weaker binding. What is called kcat is the maximal rate divided by the concentration of active sites. As usually defined, the Km is the substrate concentration at which the rate is half of its maximum.

Positions count from the first letter of the chain named.

Chain of Sts-1PGM (Q8BGG7 369-638 limits assumed): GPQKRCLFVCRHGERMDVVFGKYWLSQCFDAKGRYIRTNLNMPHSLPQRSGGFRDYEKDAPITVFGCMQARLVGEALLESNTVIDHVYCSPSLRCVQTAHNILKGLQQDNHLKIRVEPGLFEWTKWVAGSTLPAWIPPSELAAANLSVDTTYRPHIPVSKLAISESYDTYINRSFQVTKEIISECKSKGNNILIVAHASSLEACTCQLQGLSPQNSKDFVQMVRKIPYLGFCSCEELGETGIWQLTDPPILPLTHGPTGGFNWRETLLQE

`[O]=[W](=[O])([OH])[OH]` [tungstate, sodium tungstate]: on Sts-2PGM [1], the concentration for half-maximal inhibition (IC50) was determined as 0.82 ± 0.1 mM and the affinity corresponds to a Ki of 0.54 ± 0.07 mM.
For `[O]=[V]([OH])([OH])[OH]` [vanadate, sodium vanadate], in that order: 5.3 ± 3.3 mM and 3.55 ± 2.3 mM.
As for `O=[N+]([O-])c1ccc(OP(=O)(O)O)cc1` [pNPP, p-nitrophenyl phosphate], the relative activity on Sts-2PGM(A446S/S552A) is on record as 28%; on Sts-1PGM (pH 5.0, relative to Sts-2PGM) it was 210000%; on Sts-1PGM (pH 7.5, relative to Sts-2PGM) it was 9400%; at Sts-2PGM [2] (pH 5.0, relative to Sts-2PGM), 13.0%; at Sts-2PGM [2] (pH 7.5 (reference)), 1%; at Sts-2PGM(E481V) (pH 5.0, relative to Sts-2PGM), 207%. Further, the relative activity on Sts-2PGM(E481V) (pH 7.5, relative to Sts-2PGM) amounted to 10%; at Sts-2PGM(S552A/S582Y) (pH 5.0, relative to Sts-2PGM), 312%. Also, the kcat on Sts-1PGM (pH 5.0, 37 °C) was found to be 63.4 s⁻¹; on Sts-1PGM (pH 7.5, 37 °C) it was 70 s⁻¹; on Sts-2PGM [2] (pH 5.0, 37 °C), 0.3 s⁻¹; at Sts-2PGM(S552A/S582Y) (pH 5.0, 37 °C), 2.9 s⁻¹. Also, the Km at Sts-2PGM(S552A/S582Y) (pH 5.0, 37 °C) came out at 600 µM.
At Sts-2PGM [1], `O=P(O)(O)O` [phosphate] displayed an IC50 of 52 ± 6.2 mM and a Ki of 35.1 ± 4.1 mM.
